Test results as given in PubChem BioAssay (NCI).
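Method: 48-hour compound exposure of cells in 96-well plates, five concentrations, linear interpolation of endpoints. GI50 is the concentration that inhibits growth by half. At the TGI there is no net growth.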

How the values were obtained:
Test in all cases: NCI-60 cell line screen, 48 h
RXF 393 renal = system: RXF 393 renal
SF-295 CNS = system: SF-295 CNS
DU-145 prostate = system: DU-145 prostate
SNB-75 CNS = system: SNB-75 CNS
SR leukemia = system: SR leukemia
UO-31 renal = system: UO-31 renal
NCI-H226 lung = system: NCI-H226 lung
HT29 colon = system: HT29 colon
ACHN renal = system: ACHN renal
MOLT-4 leukemia = system: MOLT-4 leukemia
MDA-MB-468 breast = system: MDA-MB-468 breast
NCI-H522 lung = system: NCI-H522 lung
SK-MEL-28 melanoma = system: SK-MEL-28 melanoma
K-562 leukemia = system: K-562 leukemia
OVCAR-3 ovarian = system: OVCAR-3 ovarian
MDA-MB-435 = system: MDA-MB-435
HCT-116 colon = system: HCT-116 colon
HCC-2998 colon = system: HCC-2998 colon
786-0 renal = system: 786-0 renal
NCI-H460 lung = system: NCI-H460 lung
TK-10 renal = system: TK-10 renal
SW-620 colon = system: SW-620 colon
A498 renal = system: A498 renal
COLO 205 colon = system: COLO 205 colon
T-47D breast = system: T-47D breast
UACC-62 melanoma = system: UACC-62 melanoma
BT-549 breast = system: BT-549 breast
HOP-62 NSCLC = system: HOP-62 NSCLC
CAKI-1 renal = system: CAKI-1 renal
NCI-H23 lung = system: NCI-H23 lung
SF-539 CNS = system: SF-539 CNS
MALME-3M melanoma = system: MALME-3M melanoma
OVCAR-8 ovarian = system: OVCAR-8 ovarian
MCF7 breast = system: MCF7 breast
HL-60(TB) leukemia = system: HL-60(TB) leukemia
SK-MEL-2 melanoma = system: SK-MEL-2 melanoma
SF-268 CNS = system: SF-268 CNS
HCT-15 colon = system: HCT-15 colon
M14 melanoma = system: M14 melanoma
IGROV1 ovarian = system: IGROV1 ovarian
RPMI-8226 leukemia = system: RPMI-8226 leukemia
HS 578T breast = system: HS 578T breast
CCRF-CEM leukemia = system: CCRF-CEM leukemia
EKVX NSCLC = system: EKVX NSCLC
MDA-MB-231 breast = system: MDA-MB-231 breast
SK-MEL-5 melanoma = system: SK-MEL-5 melanoma
OVCAR-5 ovarian = system: OVCAR-5 ovarian
A549 NSCLC = system: A549 NSCLC
U251 CNS = system: U251 CNS
SN12C renal = system: SN12C renal
KM12 colon = system: KM12 colon
SK-OV-3 ovarian = system: SK-OV-3 ovarian
OVCAR-4 ovarian = system: OVCAR-4 ovarian
PC-3 prostate = system: PC-3 prostate
UACC-257 melanoma = system: UACC-257 melanoma
LOX IMVI melanoma = system: LOX IMVI melanoma
SNB-19 CNS = system: SNB-19 CNS
HOP-92 NSCLC = system: HOP-92 NSCLC

O=C(O)c1ccc(-c2ccc(/C=N/NC(=O)c3[nH]c4ccc(Br)cc4c3-c3ccccc3)s2)cc1
GI50 (RXF 393 renal): 13.9 µM
TGI (RXF 393 renal): 57.7 µM
GI50 (SF-295 CNS): 7.34 µM
TGI (SF-295 CNS): 26.2 µM
GI50 (DU-145 prostate): 24.9 µM
TGI (DU-145 prostate): > 100 µM
GI50 (SNB-75 CNS): 11.2 µM
TGI (SNB-75 CNS): 44.8 µM
GI50 (SR leukemia): 13.7 µM
TGI (SR leukemia): 58 µM
GI50 (UO-31 renal): 10.4 µM
TGI (UO-31 renal): 33.9 µM
GI50 (NCI-H226 lung): 21 µM
TGI (NCI-H226 lung): 75.5 µM
GI50 (HT29 colon): 12.7 µM
TGI (HT29 colon): 30.4 µM
GI50 (ACHN renal): 11.4 µM
TGI (ACHN renal): 55.7 µM
GI50 (MOLT-4 leukemia): 6.42 µM
TGI (MOLT-4 leukemia): 34.2 µM
GI50 (MDA-MB-468 breast): 19.1 µM
TGI (MDA-MB-468 breast): 59.7 µM
GI50 (NCI-H522 lung): 15.9 µM
TGI (NCI-H522 lung): 33.4 µM
GI50 (SK-MEL-28 melanoma): 7.17 µM
TGI (SK-MEL-28 melanoma): 21.6 µM
GI50 (K-562 leukemia): 6.15 µM
TGI (K-562 leukemia): 37.1 µM
GI50 (OVCAR-3 ovarian): 13.7 µM
TGI (OVCAR-3 ovarian): 35.8 µM
GI50 (MDA-MB-435): 6.81 µM
TGI (MDA-MB-435): 28.2 µM
GI50 (HCT-116 colon): 3.7 µM
TGI (HCT-116 colon): 12.6 µM
GI50 (HCC-2998 colon): 11.8 µM
TGI (HCC-2998 colon): 27.3 µM
GI50 (786-0 renal): 3.13 µM
TGI (786-0 renal): 11 µM
GI50 (NCI-H460 lung): 12.3 µM
TGI (NCI-H460 lung): 31.5 µM
GI50 (TK-10 renal): 26.8 µM
TGI (TK-10 renal): > 100 µM
GI50 (SW-620 colon): 13.8 µM
TGI (SW-620 colon): 34.1 µM
GI50 (A498 renal): 20.7 µM
TGI (A498 renal): 52 µM
GI50 (COLO 205 colon): 16.1 µM
TGI (COLO 205 colon): 33.9 µM
GI50 (T-47D breast): 13.9 µM
TGI (T-47D breast): 59.5 µM
GI50 (UACC-62 melanoma): 11.7 µM
TGI (UACC-62 melanoma): 24.6 µM
GI50 (BT-549 breast): 1950 nM
TGI (BT-549 breast): 5.83 µM
GI50 (HOP-62 NSCLC): 12.3 µM
TGI (HOP-62 NSCLC): 30.4 µM
GI50 (CAKI-1 renal): 21.1 µM
TGI (CAKI-1 renal): 64.1 µM
GI50 (NCI-H23 lung): 21.7 µM
TGI (NCI-H23 lung): 54.5 µM
GI50 (SF-539 CNS): 6.79 µM
TGI (SF-539 CNS): 22.2 µM
GI50 (MALME-3M melanoma): 16.3 µM
TGI (MALME-3M melanoma): 38.2 µM
GI50 (OVCAR-8 ovarian): 15.9 µM
TGI (OVCAR-8 ovarian): 66.9 µM
GI50 (MCF7 breast): 18.1 µM
TGI (MCF7 breast): 65.1 µM
GI50 (HL-60(TB) leukemia): 4.31 µM
TGI (HL-60(TB) leukemia): 25 µM
GI50 (SK-MEL-2 melanoma): 15.6 µM
TGI (SK-MEL-2 melanoma): 35.7 µM
GI50 (SF-268 CNS): 13.5 µM
TGI (SF-268 CNS): 46 µM
GI50 (HCT-15 colon): 5.27 µM
TGI (HCT-15 colon): 20 µM
GI50 (M14 melanoma): 6.32 µM
TGI (M14 melanoma): 30.3 µM
GI50 (IGROV1 ovarian): 7.85 µM
TGI (IGROV1 ovarian): 23.1 µM
GI50 (RPMI-8226 leukemia): 6.05 µM
TGI (RPMI-8226 leukemia): 51.3 µM
GI50 (HS 578T breast): 6.67 µM
TGI (HS 578T breast): 38.9 µM
GI50 (CCRF-CEM leukemia): 4.44 µM
TGI (CCRF-CEM leukemia): 26.9 µM
GI50 (EKVX NSCLC): 14.4 µM
TGI (EKVX NSCLC): 39.1 µM
GI50 (MDA-MB-231 breast): 20.6 µM
TGI (MDA-MB-231 breast): 47.2 µM
GI50 (SK-MEL-5 melanoma): 12 µM
TGI (SK-MEL-5 melanoma): 27 µM
GI50 (OVCAR-5 ovarian): 17.1 µM
TGI (OVCAR-5 ovarian): 31.5 µM
GI50 (A549 NSCLC): 13.5 µM
TGI (A549 NSCLC): 44.6 µM
GI50 (U251 CNS): 5.98 µM
TGI (U251 CNS): 22 µM
GI50 (SN12C renal): 9.73 µM
TGI (SN12C renal): 29.7 µM
GI50 (KM12 colon): 15.3 µM
TGI (KM12 colon): 39.7 µM
GI50 (SK-OV-3 ovarian): 20 µM
TGI (SK-OV-3 ovarian): 41.2 µM
GI50 (OVCAR-4 ovarian): 7.68 µM
TGI (OVCAR-4 ovarian): 44.9 µM
GI50 (PC-3 prostate): 4.79 µM
TGI (PC-3 prostate): 37 µM
GI50 (UACC-257 melanoma): 18.7 µM
TGI (UACC-257 melanoma): 50.2 µM
GI50 (LOX IMVI melanoma): 25.7 µM
TGI (LOX IMVI melanoma): > 100 µM
GI50 (SNB-19 CNS): 6.76 µM
TGI (SNB-19 CNS): 20.5 µM
GI50 (HOP-92 NSCLC): 4.41 µM
TGI (HOP-92 NSCLC): 22 µM
